The text below walks through data of US7981903B2, “2-[2-{phenylamino}-1H-pyrrolo[2,3-D]pyrimidin-4-yl)amino] benzamide derivatives as IGF-1R inhibitors for the treatment of cancer” (GlaxoSmithKline LLC, priority 2007, dated 2011).

The target of one test is T1, human IGF1R (hIGF1R) (Homo sapiens, UniProt P08069).
T1 construct: containing amino acid residues 957-1367 of human IGF1R; made in house; host or cells: Sf9 cells (baculovirus)
As to the kind of experiment: TR-FRET kinase assay of purified hIGF1R. Type of test: biochemical. The conditions noted are these: activated hIGF1R 0.5 nM, 10 μM ATP, values given as pIC50 category, read-out: IGF-1R pIC50 (converted). On the procedure: (§1) Time Resolved Fluorescence Resonance Energy Transfer (TR-FRET) assays were carried out on the exemplified compounds as follows:
(§2) Purity is determined by HPLC. The calculated molecular mass of the peptide is 2216 dalton. Tyrosine phosphorylation by human IGF1R (hIGF1R) or human IR (hIR) occurs as indicated (Y*) in the peptide sequence described. Solid peptide sample is dissolved to approximately 1 mM in DMSO, aliquoted, and stored at −20° C. until use. True peptide concentration is determined by amino acid analysis.
hIGF1R: GST-rTEV-IGF-1R(957-1367) containing amino acid residues 957-1367 of human IGF1R (as annotated by National Center for Biotechnology Information (NCBI) accession number NP_000866) is purified from a baculovirus expression system in Sf9 cells using Glutathione Sepharose 4FF column chromatography followed by Sephadex-200 size exclusion column chromatography. […] Samples, in 25 mM Tris-HCl, 250 mM NaCl, 5% glycerol, 1 mM DTT, pH 7.5, are stored at −80° C. until use.
hIGF1R: Activation of GST-rTEV-IGF-1R(957-1367) is achieved by a 4 minute incubation of hIGF1R (2.7 μM final) with 2 mM ATP in 50 mM HEPES, 20 mM MgCL2, 0.1 mg/ml BSA, at room temperature. Autophosphorylation is stopped by addition of EDTA (to 100 mM final). Aliquoted samples are flash frozen in liquid nitrogen and stored at −80° C. until use.
(§3) Assays are performed in 384-well (Greiner, Catalog No. 784076) microtiter plates. Reaction buffer (50 mM HEPES buffer, pH 7.5; 10 mM MgCL2; 3 mM DTT; 1 mM CHAPS; 0.1 mg/ml BSA) for peptide phosphorylation (10 μl volume) contained, in final concentrations, 500 nM biotinylated peptide substrate; 10 μM ATP; and purified, activated hIGF1R or hIR (0.5 nM). Compounds, titrated in DMSO, are evaluated at eleven concentrations ranging from 50 μM to 0.2 nM. […] Reactions are incubated for 1 hour at room temperature and are stopped by a 5 μl addition of EDTA (to 33 mM). A further addition of 5 μl detection reagents (for final 7 nM Streptavidin-APC (Perkin Elmer #CR^130-150), 1 nM Europium-labeled anti-phosphotyrosine monoclonal antibody (PerkinElmer #AD0067), added in reaction buffer (without DTT), is required for signal generation. After 30 minutes, signal is read on PerkinElmer Viewlux microplate imager or Wallac Victor fluorometer.
(§4) The data for compound concentration responses were plotted as % Inhibition, calculated with the data reduction formula 100*(1-[(U1-C2)/(C1-C2)]), versus concentration of compound, where • U is the unknown value, • C1 is the average control value obtained for DMSO only, and • C2 is the average control value obtained for reactions stopped with EDTA at • t=0.
(§5) Data were fitted to the curve described by: y=((Vmax*x)/(K+x)) where • Vmax is the upper asymptote and • K is the IC50.

In test [1] the target is T2, NIH-3T3 cells overexpressing human IGF-1R (Homo sapiens, UniProt P08069).
T2 construct: expressed in transfected cells; host or cells: NIH-3T3 (mouse fibroblasts)
T2 sequence (P08069 31-1367): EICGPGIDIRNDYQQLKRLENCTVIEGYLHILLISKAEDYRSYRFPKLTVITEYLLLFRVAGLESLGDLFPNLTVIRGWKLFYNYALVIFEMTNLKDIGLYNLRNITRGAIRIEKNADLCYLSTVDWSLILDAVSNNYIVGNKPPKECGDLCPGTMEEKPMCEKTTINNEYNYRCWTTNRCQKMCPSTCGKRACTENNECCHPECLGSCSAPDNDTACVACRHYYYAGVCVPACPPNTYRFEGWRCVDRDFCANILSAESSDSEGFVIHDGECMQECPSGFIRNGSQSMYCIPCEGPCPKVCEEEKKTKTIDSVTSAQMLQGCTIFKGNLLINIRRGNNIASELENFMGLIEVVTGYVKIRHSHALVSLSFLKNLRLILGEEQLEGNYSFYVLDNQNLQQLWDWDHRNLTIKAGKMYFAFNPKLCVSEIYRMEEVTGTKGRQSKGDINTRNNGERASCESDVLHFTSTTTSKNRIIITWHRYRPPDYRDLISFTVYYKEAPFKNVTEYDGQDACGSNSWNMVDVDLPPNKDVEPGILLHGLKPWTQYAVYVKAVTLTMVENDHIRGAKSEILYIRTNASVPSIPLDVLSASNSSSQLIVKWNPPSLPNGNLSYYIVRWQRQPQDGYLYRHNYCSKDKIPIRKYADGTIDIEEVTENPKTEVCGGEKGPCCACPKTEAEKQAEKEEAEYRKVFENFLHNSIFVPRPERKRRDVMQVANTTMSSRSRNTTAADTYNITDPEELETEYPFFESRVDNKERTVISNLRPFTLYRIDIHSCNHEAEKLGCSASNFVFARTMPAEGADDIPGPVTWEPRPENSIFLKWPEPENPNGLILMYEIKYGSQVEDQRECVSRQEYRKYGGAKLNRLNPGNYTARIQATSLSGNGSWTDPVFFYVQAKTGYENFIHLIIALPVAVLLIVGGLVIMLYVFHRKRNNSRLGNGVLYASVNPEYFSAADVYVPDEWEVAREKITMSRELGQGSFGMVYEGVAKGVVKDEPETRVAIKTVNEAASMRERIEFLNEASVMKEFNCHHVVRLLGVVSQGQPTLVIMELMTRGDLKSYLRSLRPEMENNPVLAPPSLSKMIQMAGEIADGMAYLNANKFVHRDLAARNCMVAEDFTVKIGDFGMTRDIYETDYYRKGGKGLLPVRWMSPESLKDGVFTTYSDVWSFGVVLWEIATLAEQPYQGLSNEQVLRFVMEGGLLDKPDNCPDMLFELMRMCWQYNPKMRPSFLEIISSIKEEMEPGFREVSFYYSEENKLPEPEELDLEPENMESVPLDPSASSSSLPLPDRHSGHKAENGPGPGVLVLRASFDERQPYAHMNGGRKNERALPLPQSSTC
Nature of the test: IGF-1R cellular autophosphorylation (DELFIA). Type of test: cell-based. Here is the method: NIH-3T3 cells overexpressing human IGF-1R or IR were plated in 96-well plates (10,000 cells/well) in culture media containing 10% fetal bovine serum and incubated at 37° C. in a 5% CO2 incubator. Twenty four hours post-plating, cells were treated with different concentrations of test compounds ranging from 30 uM to 1.5 nM. Two hours after compound addition, cells were stimulated with either human IGF-1 (30 ng/ml) or insulin (3 ug/ml) for 15 minutes. Cell lysates are analyzed for phosphorylated receptors using dissociation enhanced lanthanide fluor-immuno assay (DELFIA) with anti-IGF-1R (MAB391, R&D Systems, Minneapolis, Minn.) or anti-IRβ (sc-711, Santa Cruz Biotechnology, Santa Cruz, Calif.) capture antibody and europium-labeled anti-pTyr antibody (Eu-N1 PT66, Perkin Elmer, Waltham, Mass.) for detection. The fluorescence signal for cells treated with compounds was expressed as percent relative to 100% stimulation (IGF-1 or insulin stimulated signal).

Another test concerns the target ALK (Homo sapiens, UniProt Q9UM73). As to the kind of experiment: ALK enzyme assay (HTRF). It counts as biochemical. The conditions noted are these: 0.25 nM ALK, 15.0 μM ATP, values given as pIC50 category. Here is the method: The method measures the ability of the isolated enzyme to catalyse the transfer of the gamma-phosphate from ATP onto the tyrosine residue of a biotinylated synthetic peptide. The extent of tyrosine phosphorylation was measured using an anti-phosphotyrosine antibody, and quantified by homogenous time-resolved fluorescence (HTRF) assay purchased from CisBio (62TK0PEJ).
Reactions were performed in black 384-well polystyrene low volume plates in a final volume of 5 μl.
The reactions were then started by adding the substrate mix. The reactions were allowed to proceed for 120 minutes at 20° C. The reactions were then terminated by the addition of 5 μl HTRF detection mix to each well. The final concentrations of the detection reagents were: 50 mM HEPES (pH7.0); 0.1% BSA; 0.8 M KF; 20 mM EDTA; 1 mM CHAPS; TK-antibody Europium Cryptate; and 41 nM streptavidin-XL665. Assay plates were left unsealed, stacked and incubated at 20° for 60 minutes. Quantification of activity was achieved by counting in an Envision Counter (PerkinElmer).
Compounds under analysis were dissolved in Me2SO to 1.0 mM and serially diluted 1 to 3 with Me2SO through twelve dilutions. 0.05 μl of each concentration was transferred to the corresponding well of an assay plate. This creates a final compound concentration range from 0.00017 to 10 μM.
The data for dose responses were plotted as % Inhibition calculated with the data reduction formula 100*(1-(U1-C2)/(C1-C2)) versus concentration of compound where U is the unknown value, C1 is the average control value obtained for 1% DMSO, and C2 is the average control value obtained for 0.1 M EDTA. Data were fitted with a curve described by:
[formula] where A is the minimum y, B is the maximum y concentration [M], D is the slope factor, and x is the log10 of the compound.

The target of another test is T3, human IR (hIR) (Homo sapiens, UniProt P06213).
T3 construct: containing amino acid residues 979-1382 of human IR; made in house; host or cells: Sf9 cells (baculovirus), same process as hIGF1R
T3 sequence (P06213 979-1382): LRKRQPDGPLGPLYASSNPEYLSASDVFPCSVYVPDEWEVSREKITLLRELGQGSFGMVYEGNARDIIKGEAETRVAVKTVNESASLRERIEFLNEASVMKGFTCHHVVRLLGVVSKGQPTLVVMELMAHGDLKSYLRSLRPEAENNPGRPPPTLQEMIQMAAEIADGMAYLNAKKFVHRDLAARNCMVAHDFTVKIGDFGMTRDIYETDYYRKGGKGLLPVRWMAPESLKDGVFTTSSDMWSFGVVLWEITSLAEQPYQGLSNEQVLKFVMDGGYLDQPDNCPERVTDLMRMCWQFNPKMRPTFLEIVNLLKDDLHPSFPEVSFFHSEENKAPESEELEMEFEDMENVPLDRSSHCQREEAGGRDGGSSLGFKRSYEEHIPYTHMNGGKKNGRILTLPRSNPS
Nature of the test: TR-FRET kinase assay of purified hIR. It counts as biochemical. The conditions noted are these: activated hIR 0.5 nM, 10 μM ATP, values given as pIC50 category. On the procedure: as §1, §2
hIR: GST-rTEV-IR(979-1382) containing amino acid residues 979-1382 of human IR (as annotated by NCBI accession number NP_000199) is expressed and purified by the same process as hIGF1R. […] Samples, in 25 mM Tris-HCl, 250 mM NaCl, 5% glycerol, 1 mM DTT, pH 7.5, are stored at −80° C. until use.
hIR: Activation of GST-rTEV-IGF-1R(957-1367) is achieved by a 5 minute incubation of hIR (2.7 μM final) with 2 mM ATP in 100 mM HEPES, 10 mM MgCL2, 0.1 mg/ml BSA, at room temperature. Autophosphorylation is stopped by addition of EDTA (to 100 mM final). Aliquoted samples are flash frozen in liquid nitrogen and stored at −80° C. until use.
as §3, §4, §5
For orientation: Time-resolved FRET reads energy transfer from a long-lived donor to a nearby acceptor.

Each structure is given as a SMILES string.

Chain of ALK (Q9UM73 19-1620): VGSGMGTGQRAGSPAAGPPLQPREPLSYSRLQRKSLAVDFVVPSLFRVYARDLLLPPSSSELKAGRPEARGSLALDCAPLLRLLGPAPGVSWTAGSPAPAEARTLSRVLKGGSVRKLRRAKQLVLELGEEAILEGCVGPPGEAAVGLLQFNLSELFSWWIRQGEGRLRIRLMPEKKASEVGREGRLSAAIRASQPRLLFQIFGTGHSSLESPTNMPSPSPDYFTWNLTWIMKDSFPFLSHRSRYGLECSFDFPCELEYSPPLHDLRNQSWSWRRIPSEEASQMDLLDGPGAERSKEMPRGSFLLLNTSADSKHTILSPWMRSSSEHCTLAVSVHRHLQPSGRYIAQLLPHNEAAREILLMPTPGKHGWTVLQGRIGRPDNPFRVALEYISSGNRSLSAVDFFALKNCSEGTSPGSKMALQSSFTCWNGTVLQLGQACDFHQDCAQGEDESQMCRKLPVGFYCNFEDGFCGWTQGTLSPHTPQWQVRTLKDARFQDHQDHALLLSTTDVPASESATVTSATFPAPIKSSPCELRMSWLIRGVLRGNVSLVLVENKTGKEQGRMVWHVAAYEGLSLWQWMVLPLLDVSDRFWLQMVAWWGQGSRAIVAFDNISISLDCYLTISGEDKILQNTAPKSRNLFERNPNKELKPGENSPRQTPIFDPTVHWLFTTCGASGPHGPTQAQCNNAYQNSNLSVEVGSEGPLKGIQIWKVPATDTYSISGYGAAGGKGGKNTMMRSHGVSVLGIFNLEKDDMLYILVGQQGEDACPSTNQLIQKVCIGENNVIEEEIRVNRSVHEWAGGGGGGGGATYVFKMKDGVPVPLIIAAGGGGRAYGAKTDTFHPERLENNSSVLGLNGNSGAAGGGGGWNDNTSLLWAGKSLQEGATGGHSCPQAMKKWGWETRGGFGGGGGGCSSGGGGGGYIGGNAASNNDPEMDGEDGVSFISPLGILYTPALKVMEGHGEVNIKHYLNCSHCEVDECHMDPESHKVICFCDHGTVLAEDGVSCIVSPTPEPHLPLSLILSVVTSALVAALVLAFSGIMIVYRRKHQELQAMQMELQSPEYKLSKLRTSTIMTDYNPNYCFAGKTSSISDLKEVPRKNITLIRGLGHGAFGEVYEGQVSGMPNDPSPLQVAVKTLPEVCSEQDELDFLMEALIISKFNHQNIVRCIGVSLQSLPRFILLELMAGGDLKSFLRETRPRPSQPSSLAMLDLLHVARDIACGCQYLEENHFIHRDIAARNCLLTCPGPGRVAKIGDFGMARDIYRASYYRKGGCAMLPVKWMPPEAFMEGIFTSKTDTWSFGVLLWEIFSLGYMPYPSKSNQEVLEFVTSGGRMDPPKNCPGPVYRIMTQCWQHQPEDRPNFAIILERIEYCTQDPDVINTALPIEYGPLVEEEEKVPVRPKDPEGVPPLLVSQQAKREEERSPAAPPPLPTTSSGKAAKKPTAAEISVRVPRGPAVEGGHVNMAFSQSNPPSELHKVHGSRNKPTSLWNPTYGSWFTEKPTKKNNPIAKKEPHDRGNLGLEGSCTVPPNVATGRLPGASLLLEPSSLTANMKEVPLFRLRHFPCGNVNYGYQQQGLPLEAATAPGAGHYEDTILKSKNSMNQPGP
T1 sequence (P08069 957-1367): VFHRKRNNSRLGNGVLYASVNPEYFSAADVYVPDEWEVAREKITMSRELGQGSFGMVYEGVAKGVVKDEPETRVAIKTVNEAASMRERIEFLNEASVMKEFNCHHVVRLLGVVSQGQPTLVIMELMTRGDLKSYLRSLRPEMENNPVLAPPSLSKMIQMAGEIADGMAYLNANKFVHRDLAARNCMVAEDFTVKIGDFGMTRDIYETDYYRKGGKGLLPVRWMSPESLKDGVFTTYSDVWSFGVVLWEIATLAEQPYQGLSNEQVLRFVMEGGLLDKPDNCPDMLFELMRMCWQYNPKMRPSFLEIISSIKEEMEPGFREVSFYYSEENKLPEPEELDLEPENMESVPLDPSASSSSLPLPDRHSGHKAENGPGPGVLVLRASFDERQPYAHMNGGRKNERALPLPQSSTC

`Cc1ccc(NC(=O)CN(C)C)cc1Nc1nc(Nc2cc(F)c(F)cc2C(N)=O)c2cc[nH]c2n1` [Example 106, 2-{[2-({5-[(N,N-dimethylglycyl)amino]-2-methylphenyl}amino)-1H-pyrrolo[2,3-d]pyrimidin-4-yl]amino}-4,5-difluorobenzamide]: the IC50 on human IGF1R (hIGF1R) is 1.26 to 3.98 nM; in test [1] it was greater than 500 nM; at ALK it was 5.01 to 200 nM; at human IR (hIR), 0.251 to 1 nM.

Take `CNC(=O)c1ccccc1Nc1nc(Nc2ccc(C3=CCCN(C)C3)cc2OC)nc2[nH]ccc12` [Example 21, N-methyl-2-[(2-{[2-(methyloxy)-4-(1-methyl-1,2,5,6-tetrahydro-3-pyridinyl)phenyl]amino}-1H-pyrrolo[2,3-d]pyrimidin-4-yl)amino]benzamide]: the IC50 at human IGF1R (hIGF1R) is 1.26 to 3.98 nM; in test [1] it was 100 to 500 nM; on ALK it was 0.251 to 1 nM; at human IR (hIR) it was 0.251 to 1 nM.

Consider `CCCN1CCC=C(c2ccc(Nc3nc(Nc4cccc(F)c4C(N)=O)c4cc[nH]c4n3)c(C)c2)C1` [Example 40, 2-fluoro-6-[(2-{[2-methyl-4-(1-propyl-1,2,5,6-tetrahydro-3-pyridinyl)phenyl]amino}-1H-pyrrolo[2,3-d]pyrimidin-4-yl)amino]benzamide], for which the IC50 on human IGF1R (hIGF1R) is 1.26 to 3.98 nM; in test [1] it was 100 to 500 nM; against ALK, 1.26 to 3.98 nM.

Take `Cc1cc(N2CCOCC2)ccc1Nc1nc(Nc2ccccc2C(N)=O)c2cc[nH]c2n1` [Example 11, 2-[(2-{[2-methyl-4-(4-morpholinyl)phenyl]amino}-1H-pyrrolo[2,3-d]pyrimidin-4-yl)amino]benzamide]: the IC50 was 1.26 to 3.98 nM on human IGF1R (hIGF1R), 100 to 500 nM in test [1], 1.26 to 3.98 nM against ALK and 1.26 to 3.98 nM on human IR (hIR).

Turning to `Cc1ccc(NC(=O)CN(C)C)cc1Nc1nc(Nc2cc(F)ccc2C(N)=O)c2cc[nH]c2n1` [Example 85, 2-{[2-({5-[(N,N-dimethylglycyl)amino]-2-methylphenyl}amino)-1H-pyrrolo[2,3-d]pyrimidin-4-yl]amino}-4-fluorobenzamide], the IC50 on human IGF1R (hIGF1R) was 1.26 to 3.98 nM; in test [1] it was greater than 500 nM; against ALK, 5.01 to 200 nM; against human IR (hIR), 0.251 to 1 nM.

`CCCN1CCN(c2ccc(Nc3nc(Nc4ccccc4C(N)=O)c4cc[nH]c4n3)c(OC)c2)CC1` [Example 8, 2-[(2-{[2-(methyloxy)-4-(4-propyl-1-piperazinyl)phenyl]amino}-1H-pyrrolo[2,3-d]pyrimidin-4-yl)amino]benzamide]: the IC50 on human IGF1R (hIGF1R) is 1.26 to 3.98 nM; in test [1], less than 100 nM; at human IR (hIR), 0.251 to 1 nM.

For the molecule `Cc1ccc(NC(=O)CN(C)C)cc1Nc1nc(Nc2ccccc2C(=O)NO)c2cc[nH]c2n1` [Example 28, 2-{[2-({5-[(N,N-dimethylglycyl)amino]-2-methylphenyl}amino)-1H-pyrrolo[2,3-d]pyrimidin-4-yl]amino}-N-hydroxybenzamide], the IC50 on human IGF1R (hIGF1R) was 0.251 to 1 nM; in test [1], greater than 500 nM; against ALK it was 0.251 to 1 nM; on human IR (hIR) it was 0.251 to 1 nM.

For the molecule `COc1cc(C2=CCCN(C(C)C)C2)ccc1Nc1nc(Nc2cc(F)c(F)cc2C(N)=O)c2cc[nH]c2n1` [Example 96, 4,5-difluoro-2-[(2-{[4-[1-(1-methylethyl)-1,2,5,6-tetrahydro-3-pyridinyl]-2-(methyloxy)phenyl]amino}-1H-pyrrolo[2,3-d]pyrimidin-4-yl)amino]benzamide], the IC50 on human IGF1R (hIGF1R) was 0.251 to 1 nM; in test [1] it was less than 100 nM; against ALK it was 0.251 to 1 nM; against human IR (hIR) it was 0.251 to 1 nM.

In the case of `COc1cc(C2CCCN(C)C2)ccc1Nc1nc(Nc2ccccc2C(N)=O)c2cc[nH]c2n1` (stereo not shown) [Example 5, 2-[(2-{[2-(methyloxy)-4-(1-methyl-3-piperidinyl)phenyl]amino}-1H-pyrrolo[2,3-d]pyrimidin-4-yl)amino]benzamide], the IC50 on human IGF1R (hIGF1R) was 0.251 to 1 nM; in test [1], less than 100 nM; against ALK it was 0.251 to 1 nM; at human IR (hIR), 0.251 to 1 nM.

As for `COc1cc(C2CCCN(C)C2)ccc1Nc1nc(Nc2ccc(F)cc2C(N)=O)c2cc[nH]c2n1` (stereo not shown) [Example 56, 5-fluoro-2-[(2-{[2-(methyloxy)-4-(1-methyl-3-piperidinyl)phenyl]amino}-1H-pyrrolo[2,3-d]pyrimidin-4-yl)amino]benzamide], the results for the IC50 (in test [1]; against ALK; at human IR (hIR)) were less than 100 nM, 0.251 to 1 nM and 0.251 to 1 nM, respectively.

Regarding `COc1cc(CS(C)(=O)=O)ccc1Nc1nc(Nc2ccccc2C(N)=O)c2cc[nH]c2n1` [Example 19, 2-{[2-({2-(methyloxy)-4-[(methylsulfonyl)methyl]phenyl}amino)-1H-pyrrolo[2,3-d]pyrimidin-4-yl]amino}benzamide], the IC50 at human IGF1R (hIGF1R), against ALK and at human IR (hIR) was 1.26 to 3.98 nM throughout.
